Structures are written as SMILES. pIC50: −log10 of the molar value. A value given as a limit tells only on which side of the number the result lay.

Chain of NACHT, LRR and PYD domains-containing protein 3 (Q96P20 whole entry, the tested form may be a part): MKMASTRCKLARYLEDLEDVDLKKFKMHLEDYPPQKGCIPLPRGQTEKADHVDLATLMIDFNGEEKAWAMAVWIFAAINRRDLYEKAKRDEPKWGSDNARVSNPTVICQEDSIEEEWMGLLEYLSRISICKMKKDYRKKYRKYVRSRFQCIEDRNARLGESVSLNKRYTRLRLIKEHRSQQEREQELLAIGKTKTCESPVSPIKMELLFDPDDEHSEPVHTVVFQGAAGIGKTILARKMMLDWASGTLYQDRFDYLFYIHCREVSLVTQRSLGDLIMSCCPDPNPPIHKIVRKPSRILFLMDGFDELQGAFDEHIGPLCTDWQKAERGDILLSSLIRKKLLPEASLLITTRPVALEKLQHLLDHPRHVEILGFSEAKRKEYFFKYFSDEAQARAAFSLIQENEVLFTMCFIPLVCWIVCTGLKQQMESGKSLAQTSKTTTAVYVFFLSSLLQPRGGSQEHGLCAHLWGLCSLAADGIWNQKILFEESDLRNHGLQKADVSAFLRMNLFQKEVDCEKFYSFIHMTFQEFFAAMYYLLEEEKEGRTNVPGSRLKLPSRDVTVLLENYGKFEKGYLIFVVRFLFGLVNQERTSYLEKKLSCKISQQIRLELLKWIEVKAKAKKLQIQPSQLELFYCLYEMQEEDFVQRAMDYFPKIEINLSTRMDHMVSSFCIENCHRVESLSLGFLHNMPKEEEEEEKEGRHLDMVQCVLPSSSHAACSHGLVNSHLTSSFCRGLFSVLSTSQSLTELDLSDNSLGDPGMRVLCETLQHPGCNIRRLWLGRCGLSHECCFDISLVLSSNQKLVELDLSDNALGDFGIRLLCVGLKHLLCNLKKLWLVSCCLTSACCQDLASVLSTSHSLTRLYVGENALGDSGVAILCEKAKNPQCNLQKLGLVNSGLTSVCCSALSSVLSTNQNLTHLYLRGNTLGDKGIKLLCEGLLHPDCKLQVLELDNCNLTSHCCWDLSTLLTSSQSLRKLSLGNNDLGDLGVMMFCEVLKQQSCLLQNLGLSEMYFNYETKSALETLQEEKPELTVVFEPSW

The subject of the first test is THP-1. The test is described as follows: Cytotoxicity in human THP-1 cells assessed as reduction in cell viability incubated for 72 hrs by MTT assay. It counts as cell-based. The conditions noted are these: THP-1, 72 h.
With `CC(C)(O)c1coc(S(=O)(=O)NC(=O)Nc2c3c(cc4c2CCC4)CCC3)c1`, the pIC50 is 4.01.
On the same count and under the same terms, to `CS(=O)(=O)N1CCCc2ccc(N(S(C)(=O)=O)S(C)(=O)=O)cc21` belongs less than 4.00.
In the case of `CS(=O)(=O)N1CCCc2ccc(N(S(=O)(=O)c3ccc(F)cc3)S(=O)(=O)c3ccc(F)cc3)cc21`, the negative-log IC50 (pIC50) is less than 4.00.
Still for that read-out and setting: to `CS(=O)(=O)N1CCCc2ccc(N(S(=O)(=O)c3cccc(F)c3)S(=O)(=O)c3cccc(F)c3)cc21` belongs 4.14.
Same read-out and setting: the figure for `CS(=O)(=O)N1CCCc2ccc(N(S(=O)(=O)c3ccc(C(F)(F)F)cc3)S(=O)(=O)c3ccc(C(F)(F)F)cc3)cc21` is 5.08.
Same read-out and setting: the figure for `CCCS(=O)(=O)N(c1ccc2c(c1)N(S(C)(=O)=O)CCC2)S(=O)(=O)CCC` is 4.01.
For the compound `CS(=O)(=O)N1CCCc2ccc(N(S(=O)(=O)CCN3C(=O)c4ccccc4C3=O)S(=O)(=O)CCN3C(=O)c4ccccc4C3=O)cc21`, the pIC50 is less than 4.00.
Turning to `CS(=O)(=O)N1CCCc2ccc(N(S(=O)(=O)c3ccccc3F)S(=O)(=O)c3ccccc3F)cc21`, the pIC50 is less than 4.00.
On the same count and under the same terms, to `CS(=O)(=O)N1CCCc2ccc(N(S(=O)(=O)c3cccc4ccccc34)S(=O)(=O)c3cccc4ccccc34)cc21` belongs less than 4.00; to `CS(=O)(=O)N1CCCc2ccc(N(S(=O)(=O)c3ccc(Br)cc3)S(=O)(=O)c3ccc(Br)cc3)cc21`, 4.18.
The same measure, in the same setting: to `COC(=O)c1ccc(S(=O)(=O)N(c2ccc3c(c2)N(S(C)(=O)=O)CCC3)S(=O)(=O)c2ccc(C(=O)OC)cc2)cc1` belongs less than 4.00.
Consider `Cc1ccc(S(=O)(=O)N(c2ccc3c(c2)N(S(C)(=O)=O)CCC3)S(=O)(=O)c2ccc(C)cc2)cc1`, for which the pIC50 is 4.11.
On the same count and under the same terms, to `CCS(=O)(=O)N(c1ccc2c(c1)N(S(C)(=O)=O)CCC2)S(=O)(=O)CC` belongs less than 4.00.
As for `CS(=O)(=O)N1CCCc2ccc(N(S(=O)(=O)c3ccc(C#N)cc3)S(=O)(=O)c3ccc(C#N)cc3)cc21`, the pIC50 was 4.44.
The same measure, in the same setting: to `CS(=O)(=O)N1CCCc2ccc(N(S(=O)(=O)c3cc(C(F)(F)F)cc(C(F)(F)F)c3)S(=O)(=O)c3cc(C(F)(F)F)cc(C(F)(F)F)c3)cc21` belongs 4.46; to `CS(=O)(=O)N1CCCc2ccc(N(S(=O)(=O)Cc3ccccc3)S(=O)(=O)Cc3ccccc3)cc21`, less than 4.00; to `CC(=O)Nc1ccc(S(=O)(=O)N(c2ccc3c(c2)N(S(C)(=O)=O)CCC3)S(=O)(=O)c2ccc(NC(C)=O)cc2)cc1`, less than 4.00.
On the same count and under the same terms, to `COc1ccc(S(=O)(=O)N(c2ccc3c(c2)N(S(C)(=O)=O)CCC3)S(=O)(=O)c2ccc(OC)cc2)cc1` belongs 4.04; to `CS(=O)(=O)N1CCCc2ccc(N(S(=O)(=O)c3ccc4ccccc4c3)S(=O)(=O)c3ccc4ccccc4c3)cc21`, 4.01.
The same measure, in the same setting: to `CS(=O)(=O)N1CCCc2ccc(N(S(=O)(=O)c3ccc(-c4ccccc4)cc3)S(=O)(=O)c3ccc(-c4ccccc4)cc3)cc21` belongs less than 4.00; to `CS(=O)(=O)N1CCCc2ccc(N(S(=O)(=O)c3ccccc3)S(=O)(=O)c3ccccc3)cc21`, less than 4.00.
As for `CS(=O)(=O)N1CCCc2ccc(N(S(=O)(=O)c3ccc(Cl)cc3)S(=O)(=O)c3ccc(Cl)cc3)cc21`, the pIC50 is less than 4.00.
The same measure, in the same setting: to `CS(=O)(=O)N1CCCc2ccc(N(S(=O)(=O)c3ccccc3[N+](=O)[O-])S(=O)(=O)c3ccccc3[N+](=O)[O-])cc21` belongs less than 4.00.
Same read-out and setting: to `CS(=O)(=O)N1CCCc2ccc(N(S(=O)(=O)c3cccnc3)S(=O)(=O)c3cccnc3)cc21` belongs 4.15; to `CS(=O)(=O)N1CCCc2ccc(N(S(=O)(=O)c3cccs3)S(=O)(=O)c3cccs3)cc21`, less than 4.00.
Regarding `CCCCS(=O)(=O)N(c1ccc2c(c1)N(S(C)(=O)=O)CCC2)S(=O)(=O)CCCC`, the pIC50 was 4.02.
In the case of `CS(=O)(=O)N1CCCc2ccc(N(S(=O)(=O)c3ccc([N+](=O)[O-])cc3)S(=O)(=O)c3ccc([N+](=O)[O-])cc3)cc21`, the pIC50 is 4.19.

A further test concerns the target NACHT, LRR and PYD domains-containing protein 3 (Homo sapiens, UniProt Q96P20). Kind of test: Inhibition of NLRP3 in PMA-stimulated human THP-1 cells assessed as reduction in IL-1beta release pre-treated for 24 hrs followed by stimulation with LPS for 3 hrs and ATP for 1 hr by ELISA analysis.
Details: not given
It counts as cell-based.
With `CS(=O)(=O)N1CCCc2ccc(N(S(=O)(=O)c3ccccc3[N+](=O)[O-])S(=O)(=O)c3ccccc3[N+](=O)[O-])cc21`, the pIC50 is 4.86.

These data come from ChEMBL document CHEMBL4765468, “Development of Novel Tetrahydroquinoline Inhibitors of NLRP3 Inflammasome for Potential Treatment of DSS-Induced Mouse Colitis” (J Med Chem, 2021).
